Source: ChEMBL document CHEMBL1154469, “Design and synthesis of bisubstrate inhibitors of type 1 17beta-hydroxysteroid dehydrogenase: overview and perspectives” (Eur J Med Chem, 2008)

Columns and labels:
[1] = target: T1, 17-beta-hydroxysteroid dehydrogenase type 1 (Homo sapiens) (UniProt P14061); assay: Inhibition of 17beta-HSD1 expressed in HEK 293 cells assessed as conversion of [14C]estrone to [14C]estradiol at 0.1 uM using NADH; type: cell-based; details: HEK293
T1 sequence (whole entry): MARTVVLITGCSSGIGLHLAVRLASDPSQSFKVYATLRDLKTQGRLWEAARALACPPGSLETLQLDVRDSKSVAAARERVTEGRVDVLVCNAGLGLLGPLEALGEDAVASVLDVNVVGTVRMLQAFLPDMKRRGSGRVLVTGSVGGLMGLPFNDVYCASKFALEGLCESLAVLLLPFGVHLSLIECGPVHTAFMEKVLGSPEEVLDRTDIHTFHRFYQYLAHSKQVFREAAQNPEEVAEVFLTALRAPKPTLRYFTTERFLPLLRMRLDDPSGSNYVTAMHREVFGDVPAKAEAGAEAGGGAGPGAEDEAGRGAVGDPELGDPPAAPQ

[2] = target: T2, 17-beta-hydroxysteroid dehydrogenase type 1 (Homo sapiens, UniProt P14061); assay: Inhibition of 17beta-HSD1 expressed in HEK 293 cells assessed as conversion of [14C]estrone to [14C]estradiol using NADPH; type: cell-based, HEK293
T2 sequence (P14061 whole entry): T1 sequence (whole entry)

inhibition [1] | IC50 [2] | SMILES
27% |  | C[C@]12CC[C@@H]3c4ccc(O)cc4CC[C@H]3[C@@H]1C[C@H](CCCCCCCCCCCCCc1cc(N)cc(CC(=O)O)c1)[C@@H]2O
 | 8 nM | C[C@]12CC[C@@H]3c4ccc(O)cc4CC[C@H]3[C@@H]1C[C@H](CCCCCCCCC(=O)OC[C@H]1O[C@@H](n3cnc4c(N)ncnc43)[C@H](O)[C@@H]1O)[C@@H]2O
49% |  | C[C@]12CC[C@@H]3c4ccc(O)cc4CC[C@H]3[C@@H]1C[C@H](CCCCCCCCCCCCCc1cccc(CC(=O)O)c1)[C@@H]2O
